The record followed here is patent US10633348B2, “Methods to treat lymphoplasmacytic lymphoma” (Dana-Farber Cancer Institute, Inc., priority 2013, dated 2020).

Structures are written as SMILES.

Test systems include CDC2; IRAK4; MAP2K6; KHS1; ULK1; NEK2; MSK2 domain1; TEC; SNRK; ACK; TBK1; IRE1; NEK1; TAK1; SLK; LRRK2; LKB1; SGK3; CDK9; EPHB1; NEK4; ARAF; IKKa; SRPK1.
Holding throughout (type): cell-based
The test system of the next assay is NEK6, NEK7. As to the kind of experiment: KiNativ kinase profiling in A375 cells. As to conditions: Lys2, SEQ ID NO 122, 1.0 μM.
In another assay the test system is MST4, YSK1. Nature of the assay: KiNativ kinase profiling in A375 cells. As to conditions: Lys2, SEQ ID NO 114, 1.0 μM.
The next assay concerns MAP2K1, MAP2K2. Nature of the assay: KiNativ kinase profiling in A375 cells. As to conditions: Lys2, SEQ ID NO 79, 1.0 μM.
The next assay deals with MYO3A, MYO3B. Nature of the assay: KiNativ kinase profiling in A375 cells. As to conditions: Lys2, SEQ ID NO 115, 1.0 μM.
In a further assay the test system is MAST1, MAST2. Nature of the assay: KiNativ kinase profiling in A375 cells. As to conditions: Lys2, SEQ ID NO 96, 1.0 μM.
The next assay relates to Wnk1, Wnk2. Nature of the assay: KiNativ kinase profiling in A375 cells. As to conditions: ATP Loop, SEQ ID NO 193, 1.0 μM.
Another assay deals with MARK2, MARK3. As to the kind of experiment: KiNativ kinase profiling in A375 cells. As to conditions: Lys2, SEQ ID NO 92, 1.0 μM.
A further assay deals with Hck-pY410. As to the kind of experiment: PhosFlow. As to conditions: BCWM.1, Hck-wt and Hck-mu BCWM.1 cells; 0.5 μM and 0.1 μM.

For `CCN1CCN(Cc2ccc(NC(=O)c3ccc(C)c(Oc4cc(N)ncn4)c3)cc2C(F)(F)F)CC1` [(A-4), 3-((6-aminopyrimidin-4-yl)oxy)-N-(4-((4-ethylpiperazin-1-yl)methyl)-3-(trifluoromethyl)phenyl)-4-methylbenzamide], the “inhibition of kinase labeling” value is −12.5% with NEK6, NEK7; −2.3% in the assay on CDC2; 4.6% with MST4, YSK1; −16.3% with MAP2K1, MAP2K2; 1.9% with IRAK4; 0.5% in the assay on MAP2K6. In addition, the “inhibition of kinase labeling” value with KHS1 is 15.8%; in the assay with ULK1 it was −6.0%; in the assay on NEK2, −22.7%; in the assay on MSK2 domain1, −64.9%; in the assay with TEC it was −12.8%; with SNRK it was 18.0%. Moreover, the “inhibition of kinase labeling” value in the assay on ACK is 4.9%; with TBK1, 18.2%; with IRE1, −2.2%; with NEK1, −3.0%; in the assay on TAK1, 32.0%; with MYO3A, MYO3B, −15.3%. The “inhibition of kinase labeling” value with MAST1, MAST2 was 35.6%; with SLK it was −14.3%; with LRRK2, −15.9%; in the assay on LKB1, −6.0%; with SGK3, −10.2%; with Wnk1, Wnk2, 24.2%. The “inhibition of kinase labeling” value is −16.2% in the assay with CDK9; −1.7% in the assay on EPHB1; 1.5% with NEK4; 12.2% in the assay with ARAF; 4.6% in the assay with MARK2, MARK3; −17.0% with IKKa. Besides, in the assay with SRPK1, the “inhibition of kinase labeling” value is recorded as −34.1%.
`CCN1CCN(Cc2ccc(NC(=O)c3ccc(C)c(Oc4ccnc(Nc5cnn(C)c5)n4)c3)cc2C(F)(F)F)CC1` [(A-14), N-(4-((4-ethylpiperazin-1-yl)methyl)-3-(trifluoromethyl)phenyl)-4-methyl-3-((2-((1-methyl-1H-pyrazol-4-yl)amino)pyrimidin-4-yl)oxy)benzamide]: in the assay on Hck-pY410, the “Hck phosphorylation” value is given as “inhibit”.
